The source of these data is patent publication US7919475B2, “Compositions and methods for improving heart function” (The Regents of The University of California, priority 2004, dated 2011).

For one test, the system named is nuclear O-GlcNAcylation. Description: Nuclear O-GlcNAcylation by Western immunoblot (antibody 110.6) in neonatal cardiomyocytes. Conditions: 72 hours; 25 mM glucose; 5.5 mM glucose with 8 mM glucosamine or 50 μM PUGNAc; 25 mM glucose with adenovirus MOI 25. It is filed as cell-based, rat. Background: Immunoblotting shows a protein as a band on a membrane.
For test [1], the system named is neonatal rat cardiomyocytes. As to the kind of experiment: Indo-1 [Ca2+]i transients in cultured neonatal cardiomyocytes. Conditions: for time to achieve a 50% decrease in the calcium transient (T1/2): 5.5 mM glucose supplemented with 8 mM glucosamine or 50 μM PUGNAc, 72 hours; for increase in diastolic calcium decay relative to controls: 5.5 mM glucose with 8 mM glucosamine or 50 μM PUGNAc. It is filed as cell-based. The procedure:
(§1) Cardiomyocyte Isolation and Culture. Primary cultures of neonatal rat cardiomyocytes were prepared as described previously, see, e.g., Hartong (1996) J. Mol. Cell. Cardiol. 28:2467-2477. Cells were plated onto gelatin-coated culture dishes or laminin-coated glass chamber slides. Plating medium consisted of 4.25:1 DMEM:M199, 10% horse serum, 5% fetal bovine serum, 1% penicillin/streptomycin/fungizone (PSF), and 5.5 mM D-glucose. Cells were allowed to adhere to the plates for 24 hours before changing to basic experimental culture medium (4.5:1 DMEM:M199, 2% fetal bovine serum, 1% PSF, and 100 μM insulin) and supplemented with glucose at either physiological (5.5 mM; normal glucose) or elevated (25 mM; high glucose) concentrations. For some experiments, media was supplemented with 8 mM glucosamine, 40 μM aminoguanidine, 0.5 μg/ml tunicamycin, 50 μM PUGNAc or an osmotic control (20 mM mannitol). In cases where cells were plated at exceptionally high density (5×10^6 per 100 mm plate), the culture medium was changed daily until the cells were harvested.
Construction of adenoviral vectors. The rat cDNA corresponding to the UDP-N-acetylglucosamine:peptide N-acetylglucosaminyl transferase gene (O-GlcNAc transferase; OGT), which encodes the enzyme responsible for the O-linkage of single N-acetylglucosamine molecules to serine/threonine residues (19), and the human cDNA encoding the O-GlcNAcase gene (GCA), the enzyme responsible for removing O-linked N-acetylglucosamine residues (see, e.g., Haltiwanger (1992) J. Biol. Chem. 267:9005-9013). Each cDNA was inserted into the E1 region of an adenoviral vector construct using previously described methods (see, e.g., Gao (2001) J. Biol. Chem. 276:9838-9845). Replication-deficient adenovirus particles containing the target gene or empty vector (SR−) were generated by in vivo recombination in 293 cells and single plaques were isolated and propagated to achieve high titer. Adenoviral particles were CsCl-purified and quantified by plaque titer assay. Myocytes were infected with a multiplicity of infection (MOI) of 25 for all viruses.
Measurement of [Ca^2+]I transients. Indo-1 facilitated measurement of Ca^2+ transients has been described previously, see, e.g., He (1997) J. Clin. Invest 100:380-389). […] Cells were rinsed and incubated for 20 min at RT in appropriate serum-free culture medium containing 1.8 mM CaCl2 prior to making fluorescence measurements to allow for deesterification of the Indo-1/AM. […] Transients were measured from at least 18 cells per slide per treatment. […]
Calcium transients. To determine whether elevated extracellular glucose and increased O-GlcNAcylation would exert an effect on intracellular calcium flux, Indo-1 calcium transients were determined in neonatal rat cardiomyocytes. […]

In another test the test system is CB6F1 mice. As to the kind of experiment: Blood glucose and cardiac UDP-sugar nucleotides in streptozocin-injected mice. It is filed as in vivo, mouse. Conditions: streptozocin 150 mg/kg intraperitoneal, three weeks. The procedure:
Animals and Determination of Cardiac Sugar Nucleotides. Male CB6F1 mice weighing 20-25 g (Charles River, Wilmington, Mass.) were made diabetic using methods described previously, see, e.g., Trost (2002) supra. Briefly, diabetes was induced with a single intraperitoneal injection of streptozocin (150 mg/kg in citrate saline, pH 4.5) to animals fasted overnight (16 hrs). Diabetic animals were sacrificed three weeks following injection. To determine the degree of diabetes, blood was drawn via direct cardiac puncture in CO2-euthanized animals and plasma glucose concentration was determined using the Sigma Glucose Kit (510-A).
Sugar nucleotides were extracted from fresh ventricles and quantified by HPLC as described by Weckbecker (1983) Anal. Biochem. 132:405-412. Hearts were homogenized in 3 vols of ice-cold 0.3 M HClO4 and debris pelleted at 10,000×g for 15 min at 4° C. Two vols of 1:4 trioctylamine: 1,1,2-trichlorotrifluoroethane (Freon) were added to the supernatant, followed by vortexing for 30 sec and centrifuging at 1000×g for 5 min at 4° C. The aqueous phase was carefully transferred to a fresh tube and frozen at −80° C. until assayed. Samples were diluted in 0.5 ml H2O and desalted on a Mono-Q column (flow rate 1 ml/min). The combined UDP-GlcNAc/GalNAc fraction was collected as a peak at 23 minutes and the sample was lyophilized overnight. Dried samples were subsequently dissolved in borate solution (0.22 M boric acid, 0.09 M disodium tetraborate, and 1.2 M glycerol, pH 6.85), and separated into distinct UDP-GlcNAc and UDP-GalNAc peaks on a Partisil SAX-10 column. […]
Effects of STZ-induced diabetes on UDP-nucleotide levels. […] Blood was drawn via direct cardiac puncture and plasma [glucose] was subsequently determined using a Sigma Glucose kit. Sugar nucleotides were extracted immediately from hearts and quantitated using HPLC as described in “Experimental Procedures” above. […] Fractions were quantified by comparing total peak area with results from known concentrations of each sugar nucleotide.

The next test relates to SERCA2a. Description: SERCA2a protein level by Western immunoblot in neonatal cardiomyocytes. It is filed as cell-based, rat. Conditions: for influence on SERCA2a protein levels: 40 μM aminoguanidine or 0.5 μg/ml tunicamycin, regardless of glucose concentration. The procedure: as §1
Western Immunoblotting. To determine SERCA2a protein levels, myocytes (1×10^6) were washed with phosphate buffered saline (PBS), then extracted with 0.2 ml lysis buffer (20 mM Tris, pH 7.4, 20 mM NaCl, 0.1 mM EDTA, 1% Triton X-100, 0.5% Na-deoxycholate, 1 mM dithiothreitol). Lysates were incubated on ice for 30 min, and cellular debris was pelleted at 10,000×g for 20 min at 4° C. Protein concentration in the supernatant was determined by BioRad protein reagent. 30 μg of protein diluted in extraction buffer and 4× Laemmli sample buffer were loaded without boiling onto pre-cast 4-20% Tris-glycine gels. Separated proteins were transferred to nylon membranes using a Bio-Rad Mini Trans-Blot apparatus and blocked overnight at 4° C. Blots were incubated with a rabbit polyclonal SERCA2a antibody (see, e.g., Hartong (1996) supra) (1:5000) for 1 hour at RT, followed by a 1 hour incubation with a 1:5000 dilution of goat anti-rabbit IgG-HRP conjugated secondary antibody (Amersham). Bands were visualized by reacting with chemiluminescent substrate (NEN) and exposed to film. Protein bands were quantified from scanned images using Scion imaging software (Scion, Frederick, Md.).
SERCA2a in RNA, protein expression and promoter activity. […] FIG. 2 illustrates Northern and western blots of neonatal cardiomyocytes. (FIG. 2A) Results of a northern blot for SERCA2a mRNA in neonatal cardiomyocytes cultured for 72 hours with 5.5 mM (NG) or 25 mM (HG) glucose. Total RNA (15 μg) isolated from cultured myocytes was resolved using a denaturing agarose gel, transferred to a nylon membrane and probed with a full length ^32P-labeled probe corresponding to rat SERCA2a as described in “Experimental Procedures”. (FIG. 2B) Western immunoblot analysis of SERCA2a protein levels from neonatal cardiomyocytes exposed to 5.5 mM or 25 mM glucose in the presence and absence of 40 μM aminoguanidine (AG), 0.5 μg/ml tunicamycin (Tun), or 8 mM glucosamine (GlcN, 5.5 mM glucose group only). Crude lysates (30 μg) were resolved using 4-20% gradient SDS-PAGE gels, transferred to nylon membranes, and immunoblotted with a SERCA2a polyclonal antibody as described in “Experimental Procedures”. […] (C) SERCA2a protein levels based on Western immunoblots from adenovirus-infected neonatal cardiomyocytes.

A further test deals with MEF-2a. Description: MEF-2a protein level by immunoblot of nuclear extracts of neonatal cardiomyocytes. The format is cell-based, rat. Conditions: 25 mM glucose; 5.5 mM glucose with 8 mM glucosamine; 25 mM glucose with adeno-OGT MOI 25.
A further test concerns rat SERCA2a promoter. As to the kind of experiment: SERCA2a promoter luciferase assay in neonatal cardiomyocytes. Conditions: 5.5 mM glucose/8 mM glucosamine. It is filed as cell-based. The procedure: Transfections and SERCA2a Promoter Luciferase Assays. DNA transfection of neonatal cardiomyocytes was performed using the calcium phosphate-DNA co-precipitation method, see, e.g., Chen (1987) Mol. Cell. Biol 7:2745-2752. Cells (0.5×10^6) were transfected overnight in appropriate culture medium (either NG- or HG-containing medium) with 50 ng of either a 0.6 kb fragment of the rat SERCA2a promoter (corresponding to the 600 bases immediately upstream of the transcriptional start codon) (see, e.g., Rohrer (1991) J. Biol. Chem. 266:8638-8646) or a control plasmid (pGL3; Promega) and 3 μg of fill plasmid (pBS; Stratagene), then washed with PBS and changed into fresh culture medium. […] Transfected cells were incubated for 48 hours, then washed with PBS and incubated for 10 min with gentle agitation at RT in 200 μl of harvest buffer (50 mM MES/Tris pH 7.8, 0.1% Triton X-100, and 1.3 mM dithiothreitol). Luciferase activity was measured using 100 μl of extract in a luminometer.
The reduction in SERCA2a mRNA and protein expression observed following treatment of myocytes with high glucose prompted us to examine whether these effects were being exerted, at least in part, by interactions with the SERCA2a gene promoter. […] Crude cell lysates were incubated with luciferase substrate and relative light units were measured on a luminometer. […]

Protocol for MEF-2a: To examine cellular O-GlcNAcylation and MEF-2a levels, nuclear extracts were prepared from neonatal cardiomyocytes (2×10^6) using modifications of the procedures described by Dignam (1983) Nucleic Acids Res. 11:1475-1489. Samples of each extract (25-50 μg) were fractionated by SDS-PAGE on precast 4-20% Tris-glycine gels (BioRad) and transferred to nylon membranes. Membranes were blocked overnight, exposed to the O-GlcNAc-specific antibody 110.6 (17) (1:10,000) overnight at 4° C., then exposed for 1 hour to 1:5,000 goat anti-mouse IgM-HRP. Alternatively, membranes were exposed to anti-MEF-2 (1:200) for one hour at RT followed by a one hour exposure to 1:10,000 goat anti-rabbit IgG-HRP. Visualization and quantification was as described above.
Nuclear extracts (50 μg) were prepared as described in “Experimental Procedures” above, resolved on 10% SDS-PAGE gels, transferred to nylon membranes and immunoblotted with anti-MEF2 antibody (Santa Cruz Biotech).
Protocol for nuclear O-GlcNAcylation: Samples of each extract (25-50 μg) were fractionated by SDS-PAGE on precast 4-20% Tris-glycine gels (BioRad) and transferred to nylon membranes. Membranes were blocked overnight, exposed to the O-GlcNAc-specific antibody 110.6 (17) (1:10,000) overnight at 4° C., then exposed for 1 hour to 1:5,000 goat anti-mouse IgM-HRP. Alternatively, membranes were exposed to anti-MEF-2 (1:200) for one hour at RT followed by a one hour exposure to 1:10,000 goat anti-rabbit IgG-HRP. Visualization and quantification was as described above.
Cells were cultured for 72 hours in 5.5 mM glucose (NG) or 25 mM glucose (HG) and supplemented with one of the following: 8 mM glucosamine (NG/GlcN), 50 μM PUGNAc, or adenovirus encoding either OGT or GCA. Adenoviruses were applied at an MOI=25. Nuclear extracts (50 μg) were prepared according to the methods outlines in “Experimental Procedures”, resolved on 4-20% gradient SDS-tricine gels, transferred to nylon membranes and immunoblotted with a monoclonal anti-O-GlcNAc antibody 110.6.

Take `CC(=O)N[C@H]1/C(=N/OC(=O)Nc2ccccc2)O[C@H](CO)[C@@H](O)[C@@H]1O` [PUGNAc, O-(2-acetamido-2-deoxy-D-glucopyranosylidene)amino-N-phenyl carbamate]: in the test with nuclear O-GlcNAcylation, the “overall levels of nuclear O-GlcNAcylation” value is given as “substantially increased”. In test [1], the “time to achieve a 50% decrease in the calcium transient (T1/2)” value worked out at 1.31 ± 0.085 s and the “increase in diastolic calcium decay relative to controls” value was determined as 43%.

In the test with CB6F1 mice, `CN(N=O)C(=O)N[C@@H](C=O)[C@@H](O)[C@H](O)[C@H](O)CO` [STZ, streptozocin] showed a UDP-GalNAc in heart of 0.51 ± 0.01 nmol, a UDP-GlcNAc in heart of 1.36 ± 0.03 nmol and a blood glucose of 969 ± 40 mg/dL.

`N=C(N)NN` [aminoguanidine]: the “influence on SERCA2a protein levels” value with SERCA2a is reported as “Neither aminoguanidine nor tunicamycin appeared to influence SERCA2a protein levels”. Moreover, the “apparent increase in SERCA2a vs controls” value in the test on SERCA2a (25 mM glucose and 40 μM aminoguanidine, repeated trials) was “not statistically significant”.

Consider `N[C@H]1C(O)O[C@H](CO)[C@@H](O)[C@@H]1O` (some centres unmarked) [glucosamine], for which, in the test on SERCA2a (5.5 mM glucose and 8 mM glucosamine), the “change in SERCA2a protein compared with controls” value is given as −25±3%. Further, the “SERCA2a protein levels compared with myocytes exposed only to 5.5 mM glucose” value with SERCA2a (25 mM glucose and glucosamine) is “unchanged”. Further, the “overall levels of nuclear O-GlcNAcylation” value in the test on nuclear O-GlcNAcylation is on record as “substantially increased”. In the test on MEF-2a, the “decrease in MEF-2a expression levels compared with normal glucose controls” value worked out at 52%. In addition, in test [1], the “time to achieve a 50% decrease in the calcium transient (T1/2)” value came to 1.32 ± 0.061 s and the “increase in diastolic calcium decay relative to controls” value came to 43%. For the same compound, in the test on rat SERCA2a promoter, the “reduction in SERCA2a promoter activity compared with normal glucose controls” value worked out at 33%.

With `OC[C@@H](O)[C@@H](O)[C@H](O)[C@H](O)CO` [mannitol], the “osmotic effect on SERCA2a protein levels” value with SERCA2a (5.5 mM glucose and 20 mM mannitol) is recorded as “nor did we observe any osmotic effect”.

As to tunicamycin, the “influence on SERCA2a protein levels” value in the test with SERCA2a is listed as “Neither aminoguanidine nor tunicamycin appeared to influence SERCA2a protein levels”.
